Results as given in paper PMC6986439, “Sultiame pharmacokinetic profile in plasma and erythrocytes after single oral doses: A pilot study in healthy volunteers” (Pharmacology Research & Perspectives, 2020).
Where two headings read alike, the source gives them in different places.

Columns and labels:
[1] = Noncompartmental pharmacokinetics after single oral doses in healthy volunteers; format: in vivo, human; conditions: for half-life / Cmax / AUC / Tmax / CL renal: male, human; for AUC: read-out: AUC(0‐inf); for Tmax: read-out: Median tmax (range); for CL renal / Recovery unchanged: urine; for CL renal: read-out: Renal clearance (converted)
From the text: Eligible subjects for the clinical study were healthy adult male volunteers aged 18‐45 years, with a body weight ranging between 55 and 95 kg and a body mass index of 18‐29 kg/m^2. Subjects with a history or evidence of clinically significant diseases or interfering conditions were excluded. Other exclusion criteria included: history of any clinically significant laboratory value including serology for hepatitis and HIV, relevant alcohol or drug abuse, recent acute illness, or use of any medication the week prior to study.
Single oral doses of 50, 100, and 200 mg of sultiame (Ospolot®, immediate‐release coated tablets) were administered in fasting conditions, in open‐label, during periods 1, 2, and 3, respectively, at 4‐6 weeks interval. On each period, serial plasma and whole blood samples were collected predose, then at 15, 30 min, 1, 2, 3, 4, 5, 6, 8, 10, 24, 48, 72 168, 336, and 504 hours postdose. Plasma and whole blood samples were stored at − 80°C until analysis. Hematocrit was measured using a microhematocrit centrifuge machine (Haematokrit 200®, Hettich AG, Bäch, Switzerland) on each occasion to calculate intraerythrocytic concentrations. Urine PK samples were collected in 6 fractions, before dosing, from 0‐2, 2‐4, 4‐8, 8‐10, and 10‐24 hours postdose. Urine pH was measured on each fraction.
The quantification of sultiame in whole blood, plasma, and urine was performed using a high‐performance liquid chromatography coupled to tandem triple quadrupole mass spectrometry (LC‐MS/MS) method developed and validated purposely for the trial. Briefly, 300 µL of methanol (MeOH) containing the internal standard (IS) sultiame‐D4 (Toronto Research Chemicals, Canada) was added to 100 µL of human plasma, hemolyzed whole blood, or hemolyzed red blood cells, for protein precipitation. Urine samples were processed similarly. After vortex, sonication for 30 seconds, and centrifugation steps, 250 µL of supernatant was transferred into a glass vial with insert, followed by dilution with 250 µL of pure water and a final vortex step, prior to LC‐MS/MS analysis. Chromatographic analyses were carried out on a XSelect HSS T3 column (Waters, Milford, MA, USA) using a water‐acetonitrile gradient over 5 minutes. Detection was performed with a triple quadrupole mass spectrometer (TSQ Quantum Ultra, ThermoFisher Scientific, Waltham, MA, USA) using the m/z transitions 289.0 → 225.1 for sultiame, and 293.0 → 229.1 for sultiame‐D4. Lower limits of detection and quantification of the method were 0.001 and 0.01 µg/mL, respectively, with a dynamic range extending up to 50 µg/mL. […] Deviations from nominal concentration (inaccuracy) of internal QCs were comprised within − 1.9 to + 11.7% over the calibration range. […] Metabolites, whose chemical structure is still elusive, were not determined.
Erythrocytic concentrations (Cery) were deduced from whole blood and plasma measurements as: Cery=Cwhole blood-Cplasma·1-Ht/Ht
Plasma, whole blood, and urine sultiame PK parameters were first computed for each volunteer using standard noncompartmental calculations with Stata® (version 13, StataCorp. 2013, Stata Statistical Software, College Station TX, USA).
The area under the curve for a single dose (AUC0‐inf) was calculated using the log trapezoidal rule with extrapolation to infinity. The terminal rate constant ( λz ) was derived from a two‐exponential model curve. CL/F was calculated as the dose divided by AUC0‐inf, the half‐life (t1/2) as ln(2)/ λz , and V/F as (CL/F)/ λz .

[2] = Safety and tolerability assessments in healthy volunteers; format: in vivo, human
Experimental: All adverse events were recorded with an evaluation of their severity and imputability to the study drug. Each volunteer received a full medical examination at screening and at the end of the study. Visual analogue scales (VAS) on paper support recorded the intensity of 12 potential symptoms (abdominal pain, appetite, nausea, taste of sparkling water, fatigue, headache, dyspnea, dizziness, paresthesia, difficulty in concentration, irritability, and depression) predrug (0 hour) at 0.5, 1, 2, 4, 6, 8, 10, and 24 hours postdose. Vital signs (supine blood pressure, heart rate, body temperature, and respiratory frequency) were measured predose and at 1, 2, 4, 6, 8, 10, and 24 hours postdose. Laboratory parameters, drug screen, and urinalysis were performed at screening and at study end.

[3] = plasma, single oral dose 50 mg, n = 4, geometric mean (CV%)
[4] = plasma, single oral dose 100 mg, n = 4, geometric mean (CV%)
[5] = plasma, single oral dose 200 mg, n = 4, geometric mean (CV%)
[6] = single oral dose 50 mg, n = 4, geometric mean (CV%)
[7] = single oral dose 100 mg, n = 4, geometric mean (CV%)
[8] = single oral dose 200 mg, n = 4, geometric mean (CV%)
[9] = whole blood, single oral dose 50 mg, n = 4, geometric mean (CV%)
[10] = whole blood, single oral dose 100 mg, n = 4, geometric mean (CV%)
[11] = whole blood, single oral dose 200 mg, n = 4, geometric mean (CV%)
[12] = single oral doses 50, 100, 200 mg

For `NS(=O)(=O)c1ccc(N2CCCCS2(=O)=O)cc1` [Sultiame], the “increase in plasma Cmax for each doubling of dose” value ([1]; between dose levels 50, 100, 200 mg) was 10 fold, the “increase in urinary recovery of unchanged sultiame” value ([1]; between the 50 and 200 mg doses) was “about 10 fold” and the half-life ([1]; whole blood, oral, noncompartmental, highest observed, read-out: whole blood t1/2) was at most 312 h. The Cmax [1, 3] was 20 ng/mL, the AUC [1, 3] was 1.24 µg·h/mL and the half-life ([1]; plasma, single oral dose 50 mg, n = 4, geometric mean (CV%), read-out: t1/2 (converted)) was 50.8 h. For the same compound, the Tmax ([1]; plasma, single oral dose 50 mg, n = 4) was 7 h, the Cmax [1, 4] was 180 ng/mL and the AUC [1, 4] was 8.57 µg·h/mL. For the same compound, the half-life ([1]; plasma, single oral dose 100 mg, n = 4, geometric mean (CV%), read-out: t1/2 (converted)) was 90.9 h, the Tmax ([1]; plasma, single oral dose 100 mg, n = 4) was 2 h and the Cmax [1, 5] was 1880 ng/mL. The AUC [1, 5] was 24 µg·h/mL, the half-life ([1]; plasma, single oral dose 200 mg, n = 4, geometric mean (CV%), read-out: t1/2 (converted)) was 40 h and the Tmax ([1]; plasma, single oral dose 200 mg, n = 4) was 1.5 h. For the same compound, the CL renal [1, 6] was 2.83 mL/min, the CL renal [1, 7] was 2.33 mL/min and the CL renal [1, 8] was 2.17 mL/min. For the same compound, the Cmax [1, 9] was 7910 ng/mL, the AUC [1, 9] was 3320 µg·h/mL and the half-life ([1]; whole blood, single oral dose 50 mg, n = 4, geometric mean (CV%), read-out: t1/2 (converted)) was 313 h. For the same compound, the Tmax ([1]; whole blood, single oral dose 50 mg, n = 4) was 3 h, the Cmax [1, 10] was 15900 ng/mL and the AUC [1, 10] was 4540 µg·h/mL. For the same compound, the half-life ([1]; whole blood, single oral dose 100 mg, n = 4, geometric mean (CV%), read-out: t1/2 (converted)) was 233 h, the Tmax ([1]; whole blood, single oral dose 100 mg, n = 4) was 5.01 h and the Cmax [1, 11] was 17200 ng/mL. For the same compound, the AUC [1, 11] was 4530 µg·h/mL, the half-life ([1]; whole blood, single oral dose 200 mg, n = 4, geometric mean (CV%), read-out: t1/2 (converted)) was 253 h and the Tmax ([1]; whole blood, single oral dose 200 mg, n = 4) was 2.5 h. The CL/F [1, 3] was 40.4 (93) L/h, the V/F [1, 3] was 2964 (21) L and the CL/F [1, 4] was 11.7 (25) L/h. The V/F [1, 4] was 1529 (21) L, the CL/F [1, 5] was 8.3 (26) L/h and the V/F [1, 5] was 480 (26) L. The Recovery unchanged [1, 6] was 1.61 (17) %, the Recovery unchanged [1, 7] was 5.24 (111) % and the Recovery unchanged [1, 8] was 16.73 (36) %. The CL/F [1, 9] was 0.015 (37) L/h, the V/F [1, 9] was 6.8 (21) L and the CL/F [1, 10] was 0.008 (34) L/h. For the same compound, the V/F [1, 10] was 7.4 (21) L, the CL/F [1, 11] was 0.044 (41) L/h and the V/F [1, 11] was 16.2 (27) L. For the same compound, the “transient facial and limb paresthesia” value ([2]; after intake of the highest dose of 200 mg, four subjects) was “reported by three subjects”, the “gastrointestinal and central nervous system tolerance using VAS” value [2, 12] was “limited impact” and the “symptom most frequently reported” value [2, 12] was “Fatigue”. The “severe or serious adverse events” value ([2]; single oral doses 50, 100, 200 mg, four subjects) was “No severe or serious adverse events were reported”.
